Read-outs that look alike come from different tables or passages of the source.
Tests used:
[1] = test system: endothelial nitric oxide synthase (eNOS) genetic expression in HUVECs; assay: Relative eNOS genetic expression amount in HUVECs (OneStep real-time RT-PCR, Taqman probe, ddCt method); type: cell-based; details: 24 hours; for Relative eNOS genetic expression amount, Significant difference: vs control example 1, Dunnett's test; for action for promoting production of endothelial nitric oxide synthase (conclusion in words): 30 μM; for fold induction at 30 µM / fold induction at 1 µM: Homo sapiens, HUVEC
Procedure: HUVECs (made by Lonza; catalog no.: C2519AS)
EGM-2 (made by Lonza; catalog no.: CC-3162)
The substances under test in (1) to (3) below were each dissolved in dimethyl sulfoxide (DMSO) (made by Nacalai Tesque) to prepare solutions having a concentration of 30 mM, and the solutions were added to the culture medium at a 1/1000 proportion to prepare culture media in which the target final concentration of the respective substances under test was 30 μM (Examples 1 to 3).
• (1) Tetradecanoic acid (C14:0) (purity: 100%; made by Sigma-Aldrich) • (2) Pentadecanoic acid (C15:0) (purity: 98.8%; made by Sigma-Aldrich) • (3) Tridecanoic acid (C13:0) (purity: 99.2%; made by Sigma-Aldrich) • (4) Fluvastatin (made by Tokyo Chemical Industry Co., Ltd.; model no.: F0820)
The HUVECs were thawed in a T75 flask and cultured in a CO2 incubator (“SCA-165DRS” made by Astec Co., Ltd.; conditions: 37 °C, 5% CO2, humid; same below) using the EGM-2. The cells were isolated using a 0.05% concentration trypsin solution (“Trypsin-EDTA (0.05%), phenol red” made by Thermo Fisher Scientific; catalog no.: 25300054), sown in a 96-well plate using the culture medium, and cultured in the CO2 incubator. The next day, the culture medium was replaced with the culture media prepared in section “(3. Preparation of substances under test)” above, and the cells were then cultured for 24 hours in the CO2 incubator to carry out treatment using the substances under test.
[5. RNA Extraction, qPCR]
After the treatment, a culture medium supernatant was recovered, RNA was extracted from the cells using a FastLane Cell Probe kit (made by QIAGEN; catalog no.: 215011), OneStep real-time RT-PCR was carried out using a Taqman probe, and the relative eNOS genetic expression amount was calculated by means of the ddCt method. The relative eNOS genetic expression amount was derived by dividing the eNOS genetic expression amount by the GAPDH genetic expression amount.
A significant difference between the substance-under-test treatment groups (control example 2 and the examples) and control example 1 was certified by means of Dunnett's test.

[2] = test system: endothelial nitric oxide synthase; details: positive control; stated as known; cited from earlier work
[3] = 30 μM final concentration, average of n1-n5, control example 1 (none added) = 1.00, read-out: Relative eNOS genetic expression amount, Average value of n1-n5
[4] = 30 μM final concentration, replicate n1, eNOS/GAPDH, relative to control example 1, read-out: Relative eNOS genetic expression amount, n1
[5] = 30 μM final concentration, replicate n2, eNOS/GAPDH, relative to control example 1, read-out: Relative eNOS genetic expression amount, n2
[6] = 30 μM final concentration, replicate n3, eNOS/GAPDH, relative to control example 1, read-out: Relative eNOS genetic expression amount, n3
[7] = 30 μM final concentration, replicate n4, eNOS/GAPDH, relative to control example 1, read-out: Relative eNOS genetic expression amount, n4
[8] = 30 μM final concentration, replicate n5, eNOS/GAPDH, relative to control example 1, read-out: Relative eNOS genetic expression amount, n5

Row | Structure (SMILES) | Relative eNOS genetic expression amount, Significant difference ([1]; 30 μM final concentration) | action for promoting production of endothelial nitric oxide synthase (conclusion in words) [1] | fold induction at 30 µM [1, 3] | fold induction at 30 µM [1, 4] | fold induction at 30 µM [1, 5] | fold induction at 30 µM [1, 6] | fold induction at 30 µM [1, 7] | fold induction at 30 µM [1, 8] | Relative eNOS genetic expression amount (in words) ([1]; 1 μM (control example 2), compared with control example 1) | Relative eNOS genetic expression amount, Significant difference ([1]; 1 μM final concentration (positive control)) | fold induction at 1 µM ([1]; 1 μM final concentration (positive control), average of n1-n5, control example 1 (none added) = 1.00, read-out: Relative eNOS genetic expression amount, Average value of n1-n5) | fold induction at 1 µM ([1]; 1 μM final concentration (positive control), replicate n1, eNOS/GAPDH, relative to control example 1, read-out: Relative eNOS genetic expression amount, n1) | fold induction at 1 µM ([1]; 1 μM final concentration (positive control), replicate n2, eNOS/GAPDH, relative to control example 1, read-out: Relative eNOS genetic expression amount, n2) | fold induction at 1 µM ([1]; 1 μM final concentration (positive control), replicate n3, eNOS/GAPDH, relative to control example 1, read-out: Relative eNOS genetic expression amount, n3) | fold induction at 1 µM ([1]; 1 μM final concentration (positive control), replicate n4, eNOS/GAPDH, relative to control example 1, read-out: Relative eNOS genetic expression amount, n4) | fold induction at 1 µM ([1]; 1 μM final concentration (positive control), replicate n5, eNOS/GAPDH, relative to control example 1, read-out: Relative eNOS genetic expression amount, n5) | known action for promoting the production of endothelial nitric oxide synthase [2]
1 | CCCCCCCCCCCCCCC(=O)O [Example 2, Pentadecanoic acid] | ** (Level of significance across both sides: 1%) | have an action for promoting production of endothelial nitric oxide synthase | 1.26 | 1.15 | 1.28 | 1.2 | 1.36 | 1.3 |  |  |  |  |  |  |  |  | 
2 | CCCCCCCCCCCCC(=O)O [Example 3, Tridecanoic acid] | ** (Level of significance across both sides: 1%) | have an action for promoting production of endothelial nitric oxide synthase | 1.25 | 1.15 | 1.33 | 1.26 | 1.28 | 1.24 |  |  |  |  |  |  |  |  | 
3 | CCCCCCCCCCCCCC(=O)O [Example 1, Tetradecanoic acid] | ** (Level of significance across both sides: 1%) | have an action for promoting production of endothelial nitric oxide synthase | 1.26 | 1.27 | 1.26 | 1.31 | 1.12 | 1.33 |  |  |  |  |  |  |  |  | 
4 | CC(C)n1c(/C=C/C(O)CC(O)CC(=O)O)c(-c2ccc(F)cc2)c2ccccc21 (stereo not drawn) [Fluvastatin, reference compound] |  |  |  |  |  |  |  |  | significantly higher than that in control example 1 | ** (Level of significance across both sides: 1%) | 2.62 | 2.45 | 2.57 | 2.57 | 2.89 | 2.61 | known to have an action for promoting the production of endothelial nitric oxide synthase

Reference: US20260364038A1, “VASODILATOR, NITRIC OXIDE SYNTHASE PRODUCTION PROMOTER, AND USE OF SAME” (J-OIL MILLS, INC., priority 2022, published 2026)
